One data set can be described thus: eLogD shake-flask method. In kind it is physicochemical. The source says:
(§1) Human liver microsome stability, rat hepatocyte stability, aqueous solubility and eLogD are platform assays conducted by TCG Lifesciences and undertaken using previously described protocols.[10]

A short description of the next data set: Rat hepatocyte stability. Type of data set: in vitro ADME. The settings on record: rat hepatocytes; for hepatocyte CLint: read-out: Rat Hep CLint.
Excerpt: as §1

Data set [1] is described as follows: Human liver microsome stability. In kind it is in vitro ADME. The settings on record: human liver microsomes; for microsomal CLint: read-out: HLM CLint.
Excerpt: as §1
(In general: Liver microsomes are vesicles of endoplasmic reticulum, rich in cytochrome P450 enzymes.)

Data set [2] can be described thus: Aqueous solubility (pH 7.4). Type of data set: physicochemical.
Excerpt: as §1

The nature of data set [3]: Human HepG2 cytotoxicity assay (Cell Titre Glo). In kind it is cell-based. The settings on record: HepG2 cells, growth inhibition at 48 h, 4 replicate experiments, read-out: HepG2 CC50 (SD). The source says:
This assay uses Cell TitreGlo as a metabolic maker for human HepG2 cell growth and uses a protocol previously described.[32]

Data set [4] has as its system P. falciparum (Pf) 3D7 parasites. Put plainly: P. falciparum LDH viability assay. In kind it is cell-based. The settings on record: Plasmodium falciparum, 3D7, 72 h, LDH activity at 72 h; mean and SD of 3 independent experiments. The source says: This assay is a platform assay conducted at the Walter and Eliza Hall Institute and uses a protocol previously decsribed.[30, 31]

The mark [5] stands for this setting: aqueous medium at pH 7.4 (buffer not named), pH 7.4, aqueous buffer.
Setting [6] is: aqueous medium (pH 7.4; buffer not named), pH 7.4, aqueous buffer.
Where [7] appears, read: aqueous medium at pH 7.4, pH 7.4, aqueous buffer.

The term logD denotes the decadic logarithm of the distribution of all forms, ionised or not, between an organic phase and buffer at a given pH. A word on the solubility: it is the dissolved amount per volume that the medium holds. Low readings indicate little dissolved substance, high ones much dissolved substance. One may read the CC50 as the concentration at which the toxic effect on the cells reaches its halfway point. As a reminder, the EC50 is the midpoint of the concentration-response curve. Read a low EC50 as greater potency.

Converted amounts (≈) assume the structure as drawn. Marks after values point to notes of the source that are not given here.

In the data set “eLogD shake-flask method”, `CC1(C(=O)Nc2cncc(Cl)c2)Nc2cc(Cl)ccc2C2=NCCN21` (centres unmarked) [Compound 28, 8‐Chloro‐N‐(5‐chloropyridin‐3‐yl)‐5‐methyl‐2,3,5,6‐tetrahydroimidazo[1,2‐c]quinazoline‐5‐carboxamide] gave a logD of 2.5. Also, the hepatocyte CLint in “Rat hepatocyte stability” is 8.8 µL/min/1e6 cells. For the same molecule, the microsomal CLint in data set [1] was determined as 37 µL/min/mg. The molecule further registered a solubility in data set [2] (setting [5]) of more than 200 µM.

Consider `CC1(C(=O)Nc2cncc(Cl)c2)Nc2cc(Cl)ccc2C(=O)N1C1CC1` (centres unmarked) [Compound 16, 7‐Chloro‐N‐(5‐chloropyridin‐3‐yl)‐3‐cyclopropyl‐2‐methyl‐4‐oxo‐1,2,3,4‐tetrahydroquinazoline‐2‐carboxamide], for which the eLogD in the data set “eLogD shake-flask method” was 3.3^[d]. The hepatocyte CLint in the data set “Rat hepatocyte stability” amounted to 33 µL/min/1e6 cells. Further, the microsomal CLint in data set [1] was 172 µL/min/mg. The CC50 at 48 h in data set [3] was more than 40000 nM. For the same molecule, the EC50 in data set [4] turned out to be 27 nM. Besides, in data set [2] (setting [6]), the solubility came out at 7 µM (≈ 2.74 µg/mL).

As for “7‐Chloro‐N‐(5‐chloropyridin‐3‐yl)‐3‐methyl‐2‐(3‐(4‐methylpiperazin‐1‐yl)‐3‐oxopropyl)‐4‐oxo‐1,2,3,4‐tetrahydroquinazoline‐2‐carboxamide [Compound 23]”, in the data set “eLogD shake-flask method”, the eLogD was 2.8^[d]. The “Rat Hep CLint” value in “Rat hepatocyte stability” is reported as 16 μL/min/10^6 cells. In addition, the “HLM CLint” value in data set [1] amounted to 155 µL/min/mg. Also, in data set [2] (pH 7.4), the solubility amounted to 9.6 µM.

As to `CN1C(=O)c2ccc(-c3ccn(C)n3)cc2NC1(C)C(=O)Nc1cncc(Cl)c1` (centres unmarked) [Compound 31, N‐(5‐Chloropyridin‐3‐yl)‐2,3‐dimethyl‐7‐(1‐methyl‐1H‐pyrazol‐3‐yl)‐4‐oxo‐1,2,3,4‐tetrahydroquinazoline‐2‐carboxamide], the CC50 at 48 h in data set [3] was more than 40000 nM. Moreover, it took 808 nM to reach a half-maximal effect in data set [4] (EC50).

In the data set “eLogD shake-flask method”, `COc1ccc2c(c1)NC(C)(C(=O)Nc1cncc(Cl)c1)N(C)C2=O` (centres unmarked) [Compound 34, N‐(5‐Chloropyridin‐3‐yl)‐7‐methoxy‐2,3‐dimethyl‐4‐oxo‐1,2,3,4‐tetrahydroquinazoline‐2‐carboxamide] gave a logD of 2.7. The hepatocyte CLint in the data set “Rat hepatocyte stability” turned out to be 16 µL/min/1e6 cells. Further, the microsomal CLint in data set [1] was determined as 35 µL/min/mg. The molecule further yielded an EC50 in data set [4] of 74 nM. In data set [2] (setting [7]), the solubility is 13.5 µM (≈ 4.87 µg/mL).

Turning to `COc1cnc2c(c1)NC(C)(C(=O)Nc1cncc(Cl)c1)N(C)C2=O` (centres unmarked) [Compound 35, N‐(5‐Chloropyridin‐3‐yl)‐7‐methoxy‐2,3‐dimethyl‐4‐oxo‐1,2,3,4‐tetrahydropyrido[3,2‐d]pyrimidine‐2‐carboxamide], the CC50 at 48 h in data set [3] is more than 40000 nM. The same molecule registered an EC50 in data set [4] of 458 nM.

As to `CN1c2cc(Cl)ccc2C(=O)N(C2CC2)C1(C)C(=O)Nc1cncc(Cl)c1` (centres unmarked) [Compound 17, 7‐Chloro‐N‐(5‐chloropyridin‐3‐yl)‐3‐cyclopropyl‐1,2‐dimethyl‐4‐oxo‐1,2,3,4‐tetrahydroquinazoline‐2‐carboxamide], the eLogD in “eLogD shake-flask method” is 3.2^[d]. The hepatocyte CLint in “Rat hepatocyte stability” turned out to be 47 µL/min/1e6 cells. The microsomal CLint in data set [1] was found to be 267 µL/min/mg. Moreover, the CC50 at 48 h in data set [3] was more than 40000 nM. The molecule further registered an EC50 in data set [4] of 23 nM. The concentration in solution in data set [2] (setting [6]) (solubility) was 28 µM (≈ 11.3 µg/mL).

Take `CCN1c2cc(Cl)ccc2C(=O)N(C)C1(C)C(=O)Nc1cccc(Cl)c1` (centres unmarked) [Compound 13, 7‐Chloro‐N‐(3‐chlorophenyl)‐1‐ethyl‐2,3‐dimethyl‐4‐oxo‐1,2,3,4‐tetrahydroquinazoline‐2‐carboxamide]: in data set [3], the CC50 at 48 h was more than 40000 nM. In data set [4], the EC50 came out at 53 nM.

Regarding `CN1C(=O)c2ccc(Cl)cc2N(C)C1(C)C(=O)Nc1cncc(Cl)c1` (centres unmarked) [Compound 15, 7‐Chloro‐N‐(5‐chloropyridin‐3‐yl)‐1,2,3‐trimethyl‐4‐oxo‐1,2,3,4‐tetrahydroquinazoline‐2‐carboxamide], the CC50 at 48 h in data set [3] was more than 40000 nM. The response in data set [4] was half-maximal at 47 nM (EC50).

Regarding `CN1C(=O)c2ccc(Cl)cc2N2CCCC12C(=O)Nc1cccc(Cl)c1` (centres unmarked) [Compound 18, 8‐Chloro‐N‐(3‐chlorophenyl)‐4‐methyl‐5‐oxo‐2,3,4,5‐tetrahydropyrrolo[1,2‐a]quinazoline‐3a(1H)‐carboxamide], the CC50 at 48 h in data set [3] is more than 40000 nM. Besides, in data set [4], the EC50 amounted to 30 nM.

Turning to `CN1C(=O)c2ccc(-c3cnn(C)c3)cc2NC1(C)C(=O)Nc1cncc(Cl)c1` (centres unmarked) [Compound 32, N‐(5‐Chloropyridin‐3‐yl)‐2,3‐dimethyl‐7‐(1‐methyl‐1H‐pyrazol‐4‐yl)‐4‐oxo‐1,2,3,4‐tetrahydroquinazoline‐2‐carboxamide], the eLogD in the data set “eLogD shake-flask method” is 2.9^[d]. The hepatocyte CLint in “Rat hepatocyte stability” worked out at 5 µL/min/1e6 cells. Further, in data set [1], the microsomal CLint was determined as 34 µL/min/mg. In addition, in data set [3], the CC50 at 48 h is more than 40000 nM. Also, in data set [4], a half-maximal effect (EC50) was put at 198 nM. In data set [2] (setting [7]), the solubility came to 7 µM (≈ 2.88 µg/mL).

On to “7‐Chloro‐N‐(5‐chloropyridin‐3‐yl)‐3‐methyl‐4‐oxo‐2‐(3‐oxo‐3‐(piperazin‐1‐yl)propyl)‐1,2,3,4‐tetrahydroquinazoline‐2‐carboxamide [Compound 22]”, for which the eLogD in the data set “eLogD shake-flask method” is 1.7^[d]. Moreover, the “Rat Hep CLint” value in the data set “Rat hepatocyte stability” is 7.7 μL/min/10^6 cells. Further, the “HLM CLint” value in data set [1] came to 94 µL/min/mg. The molecule further displayed a solubility in data set [2] (pH 7.4) of 178 µM.

As to `CN1C(=O)c2ccc(Cl)cc2N(C)C1(C)C(=O)Nc1cccc(Cl)c1` (centres unmarked) [Compound 12, 7‐Chloro‐N‐(3‐chlorophenyl)‐1,2,3‐trimethyl‐4‐oxo‐1,2,3,4‐tetrahydroquinazoline‐2‐carboxamide], in “eLogD shake-flask method”, the eLogD was 3.9^[d]. Moreover, in the data set “Rat hepatocyte stability”, the hepatocyte CLint was 124 µL/min/1e6 cells. Besides, the microsomal CLint in data set [1] is 122 µL/min/mg. In addition, the CC50 at 48 h in data set [3] is more than 40000 nM. In data set [4], the EC50 was found to be 115 nM. For the same molecule, the values for the solubility in data set [2] (setting [6]) and in data set [2] (setting [5]) were 2.6 µM (≈ 0.983 µg/mL) and less than 5.2 µM, respectively.

Take `COc1ccc(-c2ccc3c(c2)NC(C)(C(=O)Nc2cncc(Cl)c2)N(C)C3=O)cn1` (centres unmarked) [Compound 30, N‐(5‐Chloropyridin‐3‐yl)‐7‐(6‐methoxypyridin‐3‐yl)‐2,3‐dimethyl‐4‐oxo‐1,2,3,4‐tetrahydroquinazoline‐2‐carboxamide]: the CC50 at 48 h in data set [3] is more than 40000 nM. This molecule also yielded an EC50 in data set [4] of 143 nM.

As to “7‐Chloro‐N‐(5‐chloropyridin‐3‐yl)‐3‐methyl‐2‐(3‐morpholino‐3‐oxopropyl)‐4‐oxo‐1,2,3,4‐tetrahydroquinazoline‐2‐carboxamide [Compound 21]”, the “Rat Hep CLint” value in the data set “Rat hepatocyte stability” is recorded as 23 μL/min/10^6 cells. Further, in data set [1], the “HLM CLint” value stood at 95 µL/min/mg. Also, the solubility in data set [2] (pH 7.4) is on record as 41 µM.

Turning to `CN1C(=O)c2ccc3cccnc3c2NC1(C)C(=O)Nc1cncc(Cl)c1` (centres unmarked) [Compound 25, N‐(5‐Chloropyridin‐3‐yl)‐2,3‐dimethyl‐4‐oxo‐1,2,3,4‐tetrahydropyrido[3,2‐h]quinazoline‐2‐carboxamide], in data set [3], the CC50 at 48 h was more than 40000 nM. This molecule had an EC50 in data set [4] of 220 nM.

For `CN1C(=O)c2ccc(Cl)cc2NC1C(=O)Nc1cccc(Cl)c1` (centres unmarked) [Compound 19, 7‐Chloro‐N‐(3‐chlorophenyl)‐3‐methyl‐4‐oxo‐1,2,3,4‐tetrahydroquinazoline‐2‐carboxamide], the CC50 at 48 h in data set [3] is more than 40000 nM. This molecule also came in with an EC50 in data set [4] of 80 nM.

Regarding `CN1C(=O)c2ccc3ncccc3c2NC1(C)C(=O)Nc1cncc(Cl)c1` (centres unmarked) [Compound 26, N‐(5‐Chloropyridin‐3‐yl)‐2,3‐dimethyl‐4‐oxo‐1,2,3,4‐tetrahydropyrido[2,3‐h]quinazoline‐2‐carboxamide], in data set [3], the CC50 at 48 h was more than 40000 nM. The molecule also had an EC50 in data set [4] of 90 nM.

As to `CN1C(=O)c2ccc(-c3cccnc3)cc2NC1(C)C(=O)Nc1cncc(Cl)c1` (centres unmarked) [Compound 29, N‐(5‐Chloropyridin‐3‐yl)‐2,3‐dimethyl‐4‐oxo‐7‐(pyridin‐3‐yl)‐1,2,3,4‐tetrahydroquinazoline‐2‐carboxamide], the CC50 at 48 h in data set [3] was more than 40000 nM. Moreover, the EC50 in data set [4] was determined as 148 nM.

`CC1(C(=O)Nc2cncc(Cl)c2)Nc2cc(Cl)ccc2-c2nccn21` (centres unmarked) [Compound 27, 8‐Chloro‐N‐(5‐chloropyridin‐3‐yl)‐5‐methyl‐5,6‐dihydroimidazo[1,2‐c]quinazoline‐5‐carboxamide] registered a logD in the data set “eLogD shake-flask method” of 2.7. In addition, the hepatocyte CLint in the data set “Rat hepatocyte stability” was determined as 59 µL/min/1e6 cells. For the same molecule, in data set [1], the microsomal CLint was found to be 110 µL/min/mg. For the same molecule, in data set [3], the CC50 at 48 h is more than 40000 nM. The molecule further showed an EC50 in data set [4] of 54 nM. The molecule further returned a solubility in data set [2] (setting [5]) of 84 µM (≈ 31.4 µg/mL).

Source of the values: article PMC11648822, “Lactam Truncation Yields a Dihydroquinazolinone Scaffold with Potent Antimalarial Activity that Targets PfATP4” (Chemmedchem, 2024).
